Target: human plasma kallikrein (Homo sapiens, UniProt P03952)
Experiment: Kallikrein inhibition FLINT assay with quenched AMC peptide substrate Z-Gly-Pro-Arg-AMC (end point EP or kinetic KIN reads)
Assay type: biochemical
Settings: kinetic reads at 5 min intervals over 30 min; read-out: Kallikrein (KIN) IC50
Protocol: A fluorescence intensity (FLINT) based assay was used to monitor inhibition of human plasma kallikrein.
The Kallikrein FLINT assay was used with the following Z-Gly-Pro-Arg-AMC assay buffer: 50 mM Tris, pH 7.5, 100 mM NaCl, 5 mM CaCl2, 0.1 mg/mL BSA, 0.03% CHAPS. Assay buffer was prepared by mixing all ingredients fresh. 2× Z-Gly-Pro-Arg-AMC peptide substrate was prepared by diluting 10 mM stock into 1× assay buffer for a 100 μM working concentration (50 μM final concentration).
Test compound(s) were run in an 11-point, 3-fold serial dilution with a final top compound concentration of 1 μM. Final DMSO in assay was 2%. Plasma kallikrein was pre-incubated for 30-minute with compound and then 50 μM substrate was added to initiate the reaction. The assay was run with either end point (EP) reads at 30 min or kinetic (KIN) reads at 5 min intervals over 30 minutes.
Percent inhibition (IC50) curves were generated per compound tested, and data was analyzed using a 4-parameter logistic fit using GeneData Screener. The relative fluorescence unit (RFU) values were normalized to percent inhibition using the following equation: % inhibition=((HC−LC)−(compound−LC)/(HC−LC))*100
An 11-point dose response curve for the test compound(s) was generated using GENDATA to determine IC50 value based on the following equation: Y=Bottom+(Top−Bottom)/(1+10^((log IC50−X)*HillSlope))
Results listed in columns with […] designation were measured using endpoint reads where a single fluorescence reading was measured for each well at a 30 min timepoint.

human plasma kallikrein, sequence (P03952 391-638 limits assumed): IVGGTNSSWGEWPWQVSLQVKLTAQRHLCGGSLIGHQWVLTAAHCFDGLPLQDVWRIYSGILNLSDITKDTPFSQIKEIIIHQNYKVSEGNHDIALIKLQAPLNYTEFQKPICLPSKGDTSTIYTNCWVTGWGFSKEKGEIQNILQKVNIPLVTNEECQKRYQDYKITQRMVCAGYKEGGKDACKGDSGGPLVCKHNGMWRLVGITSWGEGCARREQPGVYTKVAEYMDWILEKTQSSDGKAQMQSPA
human plasma kallikrein, sequence (P03952 20-390 partner limits assumed): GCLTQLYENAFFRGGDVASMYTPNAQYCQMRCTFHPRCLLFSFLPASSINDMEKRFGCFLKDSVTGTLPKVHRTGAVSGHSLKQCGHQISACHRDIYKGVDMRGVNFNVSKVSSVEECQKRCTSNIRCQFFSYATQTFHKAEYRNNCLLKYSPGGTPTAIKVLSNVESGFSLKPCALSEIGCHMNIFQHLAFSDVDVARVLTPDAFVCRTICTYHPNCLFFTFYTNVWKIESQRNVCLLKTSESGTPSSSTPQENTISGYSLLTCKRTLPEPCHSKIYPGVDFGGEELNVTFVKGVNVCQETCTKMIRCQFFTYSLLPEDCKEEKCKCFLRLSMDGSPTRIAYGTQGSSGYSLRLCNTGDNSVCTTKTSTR

IC50 [nM] | Structure (SMILES)
730 | [O-][n+]1ccc(-c2cnn(C(CC3CC3)c3ccc(-c4c(-n5cnnn5)ccc(Cl)c4F)c[n+]3[O-])c2)cn1 (stereo not drawn) [Example P398]
4210 | Cn1nncc1-c1cnn([C@@H](Cc2ccc(C(F)(F)F)nc2)c2ccc(-c3c(-n4cc(Cl)nn4)ccc(Cl)c3F)c[n+]2[O-])c1 [Example P773]
812 | [O-][n+]1cc(-c2c(-n3cnnn3)ccc(Cl)c2F)ccc1C(CC1CC1)n1cc(-c2ncns2)cn1 (stereo not drawn) [Example P525]
11.8 | O=C(O)c1ccc(-c2cnn(C(Cc3ncco3)c3ccc(-c4c(-n5cc(C(F)(F)F)nn5)ccc(Cl)c4F)c[n+]3[O-])c2)cc1F (stereo not drawn) [Example P912]
658 | [O-][n+]1cc(-c2c(-n3cnnn3)ccc(Cl)c2F)ccc1C(CC1CC1)n1cc(-c2cnn(C(F)(F)F)c2)cn1 (stereo not drawn) [Example P708]
10.7 | [O-][n+]1cc(-c2c(-n3cnnn3)ccc(Cl)c2F)ccc1C(Cc1ccc(F)cc1)n1cc(-c2c(Cl)nnn2C(F)F)cn1 (stereo not drawn) [Example P605]
841 | Cn1cc(-c2cnn(C(CC3CC3)c3ccc(-c4c(-n5cnnn5)ccc(Cl)c4F)c[n+]3[O-])c2)cn1 (stereo not drawn) [Example P288]
6.4 | [O-][n+]1cc(-c2c(-n3cnnn3)ccc(Cl)c2F)ccc1C(Cn1cc2c(n1)COCC2)n1cc(-c2ccnc(C(F)(F)F)c2)cn1 (stereo not drawn) [Example P463]
29 | Cn1ncc(F)c1-c1cnn([C@H](CCOC(F)F)c2ccc(-c3c(-n4cc(Cl)nn4)ccc(Cl)c3F)c[n+]2[O-])c1 [Example P680]
13.2 | Cc1cc(-c2cnn(C(Cn3cc(F)cn3)c3ccc(-c4c(-n5cnnn5)ccc(Cl)c4F)c[n+]3[O-])c2)ccn1 (stereo not drawn) [Example P474]
1.4 | [2H]C([2H])(C[C@H](c1ccc(-c2c(-n3cnnn3)ccc(Cl)c2F)c[n+]1[O-])n1cc(-c2cn(C)nc2Cl)cn1)OC(F)F [Example P850]
19.3 | CC(C)c1cc(-c2cnn(C(Cn3cc(F)cn3)c3ccc(-c4c(-n5cnnn5)ccc(Cl)c4F)c[n+]3[O-])c2)cc[n+]1[O-] (single isomer, unassigned) [Example P413]
14.8 | [O-][n+]1ccc(-c2cnn(C(CCOC(F)F)c3ccc(-c4c(-n5cnnn5)ccc(Cl)c4F)c[n+]3[O-])c2)c(F)c1 (single isomer, unassigned) [Example P306]
50.5 | COCC[C@H](c1ccc(-c2c(C(F)F)ccc(Cl)c2F)c[n+]1[O-])n1cc(-c2ccc(C(=O)O)cc2)cn1 [Example Q34]
123 | NC(=O)c1ccc(-c2cnn(C(CC3CC3)c3ccc(-c4c(-n5cc(C(F)(F)F)nn5)ccc(Cl)c4F)c[n+]3[O-])c2)s1 (stereo not drawn) [Example P904]
236 | Cn1ncc(F)c1-c1cnn(C(CC2CC2)c2ccc(-c3c(-n4cnnn4)ccc(Cl)c3F)c[n+]2[O-])c1 (stereo not drawn) [Example P478]
943 | [O-][n+]1cc(-c2c(-n3cnnn3)ccc(Cl)c2F)ccc1[C@@H](CC1CC1)n1cc(-c2nnco2)cn1 [Example P545]
68.8 | [2H]C([2H])(C[C@H](c1ccc(-c2c(-n3cc(C(F)(F)F)nn3)ccc(Cl)c2F)c[n+]1[O-])n1cc(-c2ncnn2C)cn1)OC(F)F [Example P820]
296 | Cn1cc(-c2cnn(C(CC3CC3)c3ccc(-c4c(-n5cnnn5)ccc(Cl)c4F)c[n+]3[O-])c2)ccc1=O (stereo not drawn) [Example P216]
55.8 | Cn1ncnc1-c1cnn([C@H](Cc2ccn(C(F)F)n2)c2ccc(-c3c(-n4cc(Cl)nn4)ccc(Cl)c3F)c[n+]2[O-])c1 [Example P794]
6.2 | NC(=O)c1ccc(-c2cnn(C(Cc3nccs3)c3ccc(-c4c(-n5cc(C(F)(F)F)nn5)ccc(Cl)c4F)c[n+]3[O-])c2)cc1F (single isomer, unassigned) [Example P943]
353 | [O-][n+]1cc(-c2c(-n3cc(Cl)nn3)ccc(Cl)c2F)ccc1[C@@H](CCOC(F)F)n1cc(-c2cn(C(F)F)nn2)cn1 [Example P679]
8 | Nc1ncc(-c2cnn([C@H](CC3CC3)c3ccc(-c4c(-n5cnnn5)ccc(Cl)c4F)c[n+]3[O-])c2)s1 [Example P614]
32.6 | Cn1nnc(F)c1-c1cnn(C(Cc2ccn(C(F)F)n2)c2ccc(-c3c(-n4cc(Cl)nn4)ccc(Cl)c3F)c[n+]2[O-])c1 (stereo not drawn) [Example P795]
222 | [2H]C([2H])(CC(c1ccc(-c2cc(Cl)ccc2C#N)c[n+]1[O-])n1cc(-c2ncnn2C(F)F)cn1)OC(F)F (single isomer, unassigned) [Example Q53]
11.1 | [O-][n+]1cc(-c2c(-n3cnnn3)ccc(Cl)c2F)ccc1[C@@H](Cc1nccs1)n1cc(-c2ccnn2C(F)F)cn1 [Example P718]
17.7 | Cn1nnc(F)c1-c1cnn([C@H](Cc2ccc(C(F)(F)F)nc2)c2ccc(-c3c(-n4cnnn4)ccc(Cl)c3F)c[n+]2[O-])c1 [Example P780]
222 | Cc1cc(C(N)=O)sc1-c1cnn(C(CC2CC2)c2ccc(-c3c(-n4cc(C(F)(F)F)nn4)ccc(Cl)c3F)c[n+]2[O-])c1 (single isomer, unassigned) [Example P957]
52.9 | Cc1cc(C(N)=O)sc1-c1cnn(C(CC2CC2)c2ccc(-c3c(-n4cnnn4)ccc(Cl)c3F)c[n+]2[O-])c1 (stereo not drawn) [Example P960]

The next lines start with the molecule.

Structure (SMILES) | IC50 [nM]
Cc1cc(C(CC2CC2)n2cc(-c3cnn(C)c(=O)c3)cn2)[n+]([O-])cc1-c1c(-n2cnnn2)ccc(Cl)c1F (stereo not drawn) [Example P130] | 959
[O-][n+]1cc(-c2c(-n3cnnn3)ccc(Cl)c2F)ccc1C(CC1CC1)n1cc(-c2ccncc2)cn1 (stereo not drawn) [Example P187] | 124
CCOC(=O)C1CC1CC(c1ccc(-c2cc(Cl)ccc2-n2cnnn2)c[n+]1[O-])n1cc(-c2ccc(C(=O)O)cc2)cn1 (stereo not drawn) [Example P68] | 513
COC(=O)Nc1ccc(-c2cnn(C(Cc3ccn(C)n3)c3ccc(-c4c(-n5cnnn5)ccc(Cl)c4F)c[n+]3[O-])c2)cc1 (single isomer, unassigned) [Example P330] | 3.3
O=C(O)c1ccc(-c2cnn(C(CN3CCCC3=O)c3ccc(-c4c(C(F)F)ccc(Cl)c4F)c[n+]3[O-])c2)cc1 (single isomer, unassigned) [Example Q14] | 3.9
COC(=O)Nc1ccc(-c2cnn(C(Cc3cccc(OC)c3)c3ccc(-c4c(-n5cnnn5)ccc(Cl)c4F)c[n+]3[O-])c2)cc1 (single isomer, unassigned) [Example P206] | 137
O=C1CCCN1CC(c1ccc(-c2c(-n3cnnn3)ccc(Cl)c2F)c[n+]1[O-])n1cc(-c2ccncc2)cn1 (stereo not drawn) [Example P242] | 3.9
COC(=O)Nc1ccc(-c2cnn(C(CC3CCCO3)c3ccc(-c4c(-n5cnnn5)ccc(Cl)c4F)c[n+]3[O-])c2)cc1 (stereo not drawn) [Example P203] | 63.3
[O-][n+]1cc(-c2cc(Cl)ccc2-n2cnnn2)ccc1C(Cc1ccc(Cl)cc1)n1cc(-c2ccc(F)nc2)cn1 (stereo not drawn) [Example P173] | 78.4
O=C(NC1CC1)c1ccc(-c2cnn(C(CC3CCCCO3)c3ccc(-c4c(-n5cnnn5)ccc(Cl)c4F)c[n+]3[O-])c2)cc1 (single isomer, unassigned) [Example P142] | 108
COC(=O)Nc1ccc(-c2cnn(C(CC(C)OC)c3ccc(-c4c(-n5cnnn5)ccc(Cl)c4F)c[n+]3[O-])c2)cc1 (single isomer, unassigned) [Example P228] | 1290
COC(=O)Nc1ccc(-c2cnn(C(Cn3cccn3)c3ccc(-c4c(-n5cnnn5)ccc(Cl)c4F)c[n+]3[O-])c2)cc1 (single isomer, unassigned) [Example P273] | 10.9
O=C(O)c1ccc(-c2cnn(C(Cc3ccc(Oc4ccccc4)cc3)c3ccc(-c4cc(Cl)ccc4-n4cnnn4)c[n+]3[O-])c2)cc1 (stereo not drawn) [Example P147] | 12.2
CC(=O)N(C)CC(c1ccc(-c2c(-n3cnnn3)ccc(Cl)c2F)c[n+]1[O-])n1cc(-c2ccncc2)cn1 (stereo not drawn) [Example P302] | 54.6
O=C(O)c1ccc(-c2cnn(C(Cc3ccn(C(F)F)n3)c3ccc(-c4c(C(F)F)ccc(Cl)c4F)c[n+]3[O-])c2)cc1F (single isomer, unassigned) [Example Q64] | 4.7
CN(CC(c1ccc(-c2c(-n3cnnn3)ccc(Cl)c2F)c[n+]1[O-])n1cc(-c2ccncc2)cn1)C(=O)CC(=O)N1CCCCC1 (stereo not drawn) [Example P322] | 83.4
COC(=O)Nc1ccc(-c2cnn(C(COC(C)C)c3ccc(-c4c(-n5cnnn5)ccc(Cl)c4F)c[n+]3[O-])c2)cc1 (stereo not drawn) [Example P229] | 271
Nc1ccc(-c2cnn(C(Cn3cc(CC(=O)N4CCCCC4)cn3)c3ccc(-c4c(-n5cnnn5)ccc(Cl)c4F)c[n+]3[O-])c2)c(F)n1 (stereo not drawn) [Example P471] | 51.7
CCOCCC(c1ccc(-c2c(-n3cnnn3)ccc(Cl)c2F)c[n+]1[O-])n1cc(-c2ccc(NC(=O)OC)cc2)cn1 (stereo not drawn) [Example P204] | 45.1
O=C(O)c1ccc(-c2cnn(C(c3cn(C4CCNCC4)nn3)c3ccc(-c4c(-n5cnnn5)ccc(Cl)c4F)c[n+]3[O-])c2)cc1 (stereo not drawn) [Example P52] | 7710
O=C(O)c1ccc(-c2cnn(C(CN3CCCC3=O)c3ccc(-c4cc(Cl)ccc4-n4cnnn4)c[n+]3[O-])c2)cc1 (stereo not drawn) [Example P163] | 26.9
COC(=O)Nc1ccc(-c2cnn(C(Cc3ccc(Cl)cc3)c3ccc(-c4cc(Cl)ccc4-n4cnnn4)c[n+]3[O-])c2)cc1 (stereo not drawn) [Example P92] | 45.5

Reference: patent US11814364B2, “Pyridine N-oxide derivatives useful as factor XIa inhibitors” (Janssen Pharmaceutica NV, priority 2021, dated 2023)
